ChEMBL document CHEMBL1124305, “Synthesis and immunological evaluation of N-terminal, noncrossreactive tachykinin antigens” (J Med Chem, 1988)
Activity calls are given as the source filed them. The rule behind the calls is not given here.

Experiments:
Format in all cases: functional, organism-based
Mus musculus [1] = species: Mus musculus; assay: Determination of serum specificity with immunogen 3-MBSA in ELISA against the respective tachykinins of mice; - indicates Nondetectable interaction
Mus musculus [2] = species: Mus musculus; assay: Determination of serum specificity with immunogen 1-MBSA in ELISA against the respective tachykinins of mice; - indicates Nondetectable interaction
Mus musculus [3] = species: Mus musculus; assay: Determination of serum specificity with immunogen 2-MBSA in ELISA against the respective tachykinins of mice; +++ indicates Strong recognition

Structure (SMILES): CSCC[C@H](NC(=O)[C@H](CC(C)C)NC(=O)CNC(=O)[C@@H](NC(=O)[C@H](Cc1ccccc1)NC(=O)[C@H](CO)NC(=O)[C@H](CC(=O)O)NC(=O)[C@@H](NC(=O)[C@H](CCCCN)NC(=O)[C@@H](N)Cc1c[nH]cn1)[C@@H](C)O)C(C)C)C(N)=O
- Specificity (Mus musculus [1]): inactive
- Specificity (Mus musculus [2]): inactive
- Specificity (Mus musculus [3]): Active
